Experimental data: patent US20230149540A1, “VACCINE PLATFORM FOR THE INDUCTION OF SYSTEMIC IMMUNE RESPONSES” (The Board of Trustees of the Leland Stanford Junior …, priority 2020, published 2023)

How the values were obtained:
human MAIT cells = assay: In vitro MAIT cell activation, IFN-γ secretion (FIG. 7); assay type: cell-based; details: stimulated for 18 h
Method: (§1) FIG. 7. In vitro exposure of human or rhesus macaque MAIT cells to their cognate antigen (5-OP-RU) (a highly unstable molecule) or microspheres loaded with 5-OP-RU-loaded MR-1 monomer induced IFN-γ secretion. Representative pseudocolor plots shown are gated on live CD8^+ T cells. Human and rhesus macaque cells were stimulated for 18 h.
(§2) Activation of innate-like T cells and effector memory T cells can be achieved by presentation of their antigen in the context of the appropriate MHC molecule. Streptavidin-coated microspheres were linked to biotinylated monomers of CD1d (type I NKT cells) or MR1 (MAIT cells) to test for induction of activation of these innate-like T cells. […] We then performed an experiment in which mice were intravenously administrated CABs loaded with αGC (positive control), which would induce the expansion of NKT cells, CD1d-αGC-coated microspheres (test group), or were left untreated (negative control) (FIG. 8).

[1] = test system: rhesus macaque MAIT cells; assay: as above; assay type: cell-based; details: stimulated for 18 h
Method: as §1, §2

For `CC(=O)C=Nc1c(NC[C@H](O)[C@H](O)[C@H](O)CO)[nH]c(=O)[nH]c1=O` [5-OP-RU], the “secretion of IFN-γ by MAIT cells” value (human MAIT cells) was “induce secretion of IFN-γ to a similar extent” and the “secretion of IFN-γ by MAIT cells” value [1] was “induce secretion of IFN-γ to a similar extent”.
